target: T1, FXR (Rattus norvegicus, UniProt Q62735); assay: Reporter gene transactivation assay; type: cell-based; conditions: Human embryonic kidney 293 cells transfected with rFXR, hRXRβ, hGrip1 and DR-4 or IR-1 luciferase reporter
T1 construct: expressed in transfected cells; host or cells: Human embryonic kidney 293 cells
Experimental: Human embryonic kidney 293 cells were seeded into 48-well culture plates at 2×10^4 cells per well in a Dulbecco's modified Eagle's medium (DMEM) supplemented with 10% fetal bovine serum. After 24 hours, cells were transfected by a calcium phosphate coprecipitation method with 250 ng of the pGL3/DR-4-luc reporter gene which consists of three copies of AGGTCAagccAGGTCA (DR-4) or pGL3/IR-1-luc which consists of three copies of GGGTCAcTGACCC (IR-1) fused to nucleotides −56 to +109 of the human c-fos promoter in front of the firefly luciferase gene in the plasmid basic pGL3 (Promega, Madison, Wis.), 40 ng pSG5/hRXRβ, 40 ng pR5/rFXR,10 ng pSG5/hGrip1, 0.4 ng CMV/R-luc (transfection normalization reporter, Promega) and 250 ng carrier DNA per well. […] After another 12-24 hours, cells were washed with PBS and refed with DMEM supplemented with 4% delipidated fetal bovine serum. Chemicals dissolved in ethanol were added in duplicate to the medium so that the final concentration of alcohol was 0.2%. After 24-48 hours, cells were harvested and luciferase activity was measured with a commercial kit (Promega Dual luciferase II) on a Monolight luminometer (Becton Dickenson, Mountain View, Calif.). FXR dimerizes with RXR to form an FXR/RXR heterodimer, which binds to both DR-4 response elements and IR-1 response elements in a ligand-dependent manner and transactivates the reporter gene expression.

T1 sequence (Q62735 whole entry): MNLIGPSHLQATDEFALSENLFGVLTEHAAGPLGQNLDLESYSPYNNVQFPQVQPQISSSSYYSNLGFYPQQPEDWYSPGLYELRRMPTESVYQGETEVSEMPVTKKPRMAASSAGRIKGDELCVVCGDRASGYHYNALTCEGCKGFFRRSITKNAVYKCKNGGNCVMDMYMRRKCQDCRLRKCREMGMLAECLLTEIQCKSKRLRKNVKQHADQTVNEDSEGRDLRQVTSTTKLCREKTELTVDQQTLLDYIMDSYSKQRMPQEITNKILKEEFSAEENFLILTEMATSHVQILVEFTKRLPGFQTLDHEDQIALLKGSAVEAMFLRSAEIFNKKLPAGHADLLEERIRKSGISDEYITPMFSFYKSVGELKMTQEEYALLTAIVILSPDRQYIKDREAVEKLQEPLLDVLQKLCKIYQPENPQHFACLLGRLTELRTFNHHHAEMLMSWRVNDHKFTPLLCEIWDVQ
T1 sequence (P28702 whole entry partner): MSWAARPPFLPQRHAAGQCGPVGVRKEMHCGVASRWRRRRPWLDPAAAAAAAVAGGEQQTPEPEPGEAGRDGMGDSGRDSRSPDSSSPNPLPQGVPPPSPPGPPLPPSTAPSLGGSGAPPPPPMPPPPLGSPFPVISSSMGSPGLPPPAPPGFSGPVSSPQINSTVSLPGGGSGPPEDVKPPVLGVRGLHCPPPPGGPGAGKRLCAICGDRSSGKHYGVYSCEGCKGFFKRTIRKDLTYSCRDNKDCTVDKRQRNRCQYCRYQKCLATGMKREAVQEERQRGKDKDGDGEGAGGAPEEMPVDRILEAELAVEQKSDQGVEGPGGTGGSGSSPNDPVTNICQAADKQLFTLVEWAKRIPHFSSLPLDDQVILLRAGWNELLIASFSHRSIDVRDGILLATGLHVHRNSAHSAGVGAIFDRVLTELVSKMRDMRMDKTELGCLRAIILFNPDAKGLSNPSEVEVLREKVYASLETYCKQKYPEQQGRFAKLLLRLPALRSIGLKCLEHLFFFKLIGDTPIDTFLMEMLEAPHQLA
T1 sequence (Q15596 whole entry partner): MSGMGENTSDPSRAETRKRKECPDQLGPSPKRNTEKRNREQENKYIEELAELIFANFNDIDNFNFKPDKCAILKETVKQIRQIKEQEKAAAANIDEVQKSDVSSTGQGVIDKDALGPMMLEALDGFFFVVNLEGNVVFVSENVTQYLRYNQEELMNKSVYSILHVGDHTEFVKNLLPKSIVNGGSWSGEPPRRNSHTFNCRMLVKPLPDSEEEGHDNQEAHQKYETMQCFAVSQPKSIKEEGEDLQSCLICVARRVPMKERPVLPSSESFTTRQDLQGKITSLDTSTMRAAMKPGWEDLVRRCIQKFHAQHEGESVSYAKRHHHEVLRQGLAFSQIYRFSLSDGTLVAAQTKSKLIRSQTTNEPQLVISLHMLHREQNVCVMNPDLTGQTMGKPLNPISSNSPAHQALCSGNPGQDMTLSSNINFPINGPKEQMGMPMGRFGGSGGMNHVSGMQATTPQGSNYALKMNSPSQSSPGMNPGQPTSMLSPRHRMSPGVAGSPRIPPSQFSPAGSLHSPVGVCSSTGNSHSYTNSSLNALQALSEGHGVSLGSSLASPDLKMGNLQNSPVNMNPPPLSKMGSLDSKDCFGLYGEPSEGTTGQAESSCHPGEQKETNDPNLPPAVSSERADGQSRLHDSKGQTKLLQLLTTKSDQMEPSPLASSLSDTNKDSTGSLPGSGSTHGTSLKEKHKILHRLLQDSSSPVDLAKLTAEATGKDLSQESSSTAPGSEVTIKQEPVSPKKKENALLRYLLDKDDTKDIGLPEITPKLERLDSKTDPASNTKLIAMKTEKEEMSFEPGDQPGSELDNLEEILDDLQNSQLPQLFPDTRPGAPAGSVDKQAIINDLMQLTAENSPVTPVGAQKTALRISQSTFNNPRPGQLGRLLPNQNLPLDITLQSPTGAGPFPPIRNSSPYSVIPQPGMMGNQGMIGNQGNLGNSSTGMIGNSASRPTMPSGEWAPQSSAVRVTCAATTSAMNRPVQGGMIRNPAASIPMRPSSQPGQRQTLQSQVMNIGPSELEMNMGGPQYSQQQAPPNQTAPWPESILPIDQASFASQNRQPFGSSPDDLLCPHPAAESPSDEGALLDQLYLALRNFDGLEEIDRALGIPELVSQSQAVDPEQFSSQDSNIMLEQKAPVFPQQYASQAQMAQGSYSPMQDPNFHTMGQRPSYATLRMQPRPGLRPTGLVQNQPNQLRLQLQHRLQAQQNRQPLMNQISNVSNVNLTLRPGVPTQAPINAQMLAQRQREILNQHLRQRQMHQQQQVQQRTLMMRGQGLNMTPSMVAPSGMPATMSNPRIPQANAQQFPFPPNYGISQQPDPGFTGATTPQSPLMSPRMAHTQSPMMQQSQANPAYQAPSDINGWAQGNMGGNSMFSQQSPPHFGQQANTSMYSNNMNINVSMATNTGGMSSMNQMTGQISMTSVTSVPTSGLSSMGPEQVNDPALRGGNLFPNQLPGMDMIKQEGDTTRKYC

Row | SMILES | agonists of FXF (reporter gene transactivation, luciferase activity)
1 | C[C@H](CCC(=O)N(C)C)[C@H]1CC[C@H]2[C@@H]3CC[C@@H]4CCCC[C@]4(C)[C@H]3CC[C@]12C [N,N-dimethyl-5β-cholanoic acid-24-amide] | potent agonists
2 | C[C@H](CCC(=O)NCC(F)(F)F)[C@H]1CC[C@H]2[C@@H]3CC[C@@H]4CCCC[C@]4(C)[C@H]3CC[C@]12C [N-(2,2,2-trifluoroethyl)-5β-cholanoic acid-24-amide] | potent agonists
3 | C[C@H](CCC(=O)NCCCl)[C@H]1CC[C@H]2[C@@H]3CC[C@@H]4CCCC[C@]4(C)[C@H]3CC[C@]12C [N-(2-chloroethyl)-5β-cholanoic acid-24-amide] | potent agonists
4 | C[C@H](CCC(=O)NCC(=O)O)[C@H]1CC[C@H]2[C@@H]3CC[C@@H]4CCCC[C@]4(C)[C@H]3CC[C@]12C [N-carboxymethyl-5β-cholanoic acid-24-amide] | potent agonists
5 | CCOC(=O)CNC(=O)CC[C@@H](C)[C@H]1CC[C@H]2[C@@H]3CC[C@@H]4CCCC[C@]4(C)[C@H]3CC[C@]12C [N-ethoxycarbonylmethyl-5β-cholanoic acid-24-amide] | potent agonists
6 | C[C@H](CCC(=O)NNC=O)[C@H]1CC[C@H]2[C@@H]3CC[C@@H]4CCCC[C@]4(C)[C@H]3CC[C@]12C [N-formylamino-5β-cholanoic acid-24-amide] | potent agonists
7 | CNC(=O)CC[C@@H](C)[C@H]1CC[C@H]2[C@@H]3CC[C@@H]4CCCC[C@]4(C)[C@H]3CC[C@]12C [N-methyl-5β-cholanoic acid-24-amide] | potent agonists
8 | CON(C)C(=O)CC[C@@H](C)[C@H]1CC[C@H]2[C@@H]3CC[C@@H]4CCCC[C@]4(C)[C@H]3CC[C@]12C [N-methyl-N-methoxy-5β-cholanoic acid-24-amide] | potent agonists
9 | CNN(C)C(=O)CC[C@@H](C)[C@H]1CC[C@H]2[C@@H]3CC[C@@H]4CCCC[C@]4(C)[C@H]3CC[C@]12C [N-methyl-N-methylamino-5β-cholanoic acid-24-amide] | potent agonists
10 | C[C@H](CCC(=O)NCCS(=O)(=O)O)[C@H]1CC[C@H]2[C@@H]3CC[C@@H]4CCCC[C@]4(C)[C@H]3CC[C@]12C [N-sulfonylethyl-5β-cholanoic acid-24-amide] | potent agonists
11 | C[C@H](CCC(=O)N(C)CC(=O)O)[C@H]1CC[C@H]2[C@@H]3CC[C@@H]4CCCC[C@]4(C)[C@H]3CC[C@]12C [cholamide, N-methyl-N-carboxymethyl-5β-cholanoic acid-24-amide] | potent agonists
12 | CC(CCS(=O)(=O)O)C1CCC2C3CCC4CCCCC4(C)C3CCC12C (centres unmarked) [cholanosulfonic acid, 3-(10,13-Dimethyl-hexadecahydro-cyclopenta[a]phenanthren-17-yl)-butane-1-sulfonic acid] | potent agonists
13 | CC(CCC(=O)O)C1CCC2C3CC=C4C=CCCC4(C)C3CCC12C (centres unmarked) [Δ^3,5-cholanoic acid, 4-(10,13-Dimethyl-2,7,8,9,10,11,12,13,14,15,16,17-dodecahydro-1H-cyclopenta[a]phenanthren-17-yl)-pentanoic acid] | potent agonists

same assay, conditions: relative to GW4064

Row | SMILES | higher efficacy than GW4064, a known non-steroidal FXR agonist
14 | C[C@H](CCC(=O)N(C)CC(=O)O)[C@H]1CC[C@H]2[C@@H]3CC[C@@H]4CCCC[C@]4(C)[C@H]3CC[C@]12C [cholamide, N-methyl-N-carboxymethyl-5β-cholanoic acid-24-amide] | 200 times

From patent US20040014734A1, “Farnesoid X-activated receptor agonists” (priority 2002, published 2004)
